Numbers after ± are expanded uncertainties.
Columns and labels:
[1] = refractive index (Na D-line) (dimensionless); conditions: 101.33 kPa, Liquid, Standard Abbe refractometry
[2] = 101.33 kPa, Liquid; for viscosity: Capillary tube (Ostwald / Ubbelohde) method; for mass density: Vibrating tube method

Compound	refractive index ([1]; 298.15 K)	refractive index ([1]; 303.15 K)	refractive index ([1]; 308.15 K)	refractive index ([1]; 313.15 K)	viscosity ([2]; 298.15 K) [mPa·s]	mass density ([2]; 298.15 K) [kg/m3]	viscosity ([2]; 303.15 K) [mPa·s]	mass density ([2]; 303.15 K) [kg/m3]	viscosity ([2]; 308.15 K) [mPa·s]	mass density ([2]; 308.15 K) [kg/m3]	viscosity ([2]; 313.15 K) [mPa·s]	mass density ([2]; 313.15 K) [kg/m3]
ClCCCl [1,2-dichloroethane]	1.4416 ± 0.0005	1.4383 ± 0.0005	1.4336 ± 0.0005	1.4311 ± 0.0005	0.7902 ± 0.0064	1246.7 ± 0.4	0.7291 ± 0.006	1240.8 ± 0.4	0.6739 ± 0.0056	1230.5 ± 0.4	0.6441 ± 0.0053	1225.6 ± 0.4
Brc1ccccc1 [bromobenzene]	1.5578 ± 0.0005	1.5538 ± 0.0005	1.5514 ± 0.0005	1.5468 ± 0.0005	1.082 ± 0.0085	1489.4 ± 0.7	1.015 ± 0.008	1481.1 ± 0.7	0.954 ± 0.0076	1475.8 ± 0.7	0.878 ± 0.0071	1467.3 ± 0.6
Clc1ccccc1 [chlorobenzene]	1.5222 ± 0.0005	1.5192 ± 0.0005	1.5163 ± 0.0005	1.5115 ± 0.0005	0.7568 ± 0.0062	1100.4 ± 0.3	0.7258 ± 0.0059	1094.9 ± 0.3	0.677 ± 0.0056	1089.4 ± 0.3	0.624 ± 0.0052	1083.9 ± 0.3

Reference: the NIST ThermoML archive (doi:10.1021/je100552a)
